Drawing on the NIST ThermoML archive (doi:10.1016/j.jct.2016.07.023), this text covers mass density for 1 compound.

Structures are written as SMILES. Numbers after ± are expanded uncertainties.

The conditions of the data set: 303.15 K; 101.1 kPa; Crystal; flotation method.

One may read the mass density as mass per unit of volume. Regarding `Cc1cc(C(=O)O)ccc1[N+](=O)[O-]` [3-methyl-4-nitrobenzoic acid], the mass density turned out to be 1528.6 ± 2.7 kg/m3.
